Experimental data from patent US20200148635A1 (priority 2017, published 2020).

Columns and labels:
Pyricularia oryzae = assay: microbe, parasite or virus in culture; assay type: cell-based; conditions: 168 h, read-out: control compared to the untreated check
Alternaria solani = assay: In vitro test Alternaria solani (early blight of tomato/potato), radial growth on Potato Dextrose Agar; assay type: cell-based; conditions: 168 h, agar plate, 25° C., seven days, read-out: control compared to the untreated check
Protocol: (§1) Alternaria solani (early blight of tomato/potato): Compounds were dissolved in 0.3% DMSO and then added to Potato Dextrose Agar medium just prior to dispensing it into Petri dishes. 5 mL medium with compound in the desired concentration was dispensed into 60 mm sterile Petri-plates. After solidification each plate was seeded with 5 mm size mycelial disc taken form periphery of actively growing virulent culture plate. Plates were incubated in growth chambers at 25° C. temperature and 60% relative humidity for seven days and radial growth was measured.

Bortytis cinera = assay: Greenhouse Bortytis cinera test in tomato, preventive; assay type: in vivo; conditions: Solanum lycopersicum, preventive spray on tomato plants, inoculated one day after treatment with Bortytis cinera, read-out: control compared to the untreated check
Protocol: Bortytis cinera Test in Tomato
Compounds were dissolved in 2% DMSO/Acetone and then mixed with water to calibrated spray volume of 50 mL. This 50 mL spray solution was poured into the spray bottles for further applications.
(§2) To test the preventive activity of compounds, healthy young tomato plants raised in the greenhouse were sprayed with active compound preparation at the stated application rates inside the spray cabinets using hallowcone nozzles. One day after treatment, the plants were inoculated with spore suspension (2% Malt) containing 1.2×10^6 Bortytis cinera inoculum. The inoculated plants were then kept in greenhouse chamber at 18-20° C. temperature and 90-100% relative humidity for disease expression.
(§3) A visual assessment of compound's performance was carried by rating the disease severity (0-100% scale) on treated plants on 3, 7, 10 and 15 days after application. Efficacy (% control) of the compounds was calculated by comparing the disease rating in the treatment with untreated control. The sprayed plants were also assessed for compound's phytotoxic effects by recording symptoms like necrosis, chlorosis and stunting.

Phakopsora pachyrhizi = assay: Greenhouse Phakopsora pachyrhizi test in soybean, preventive; assay type: in vivo; conditions: preventive spray on soybean plants, inoculated one day after treatment with Phakopsora pachyrhizi, read-out: control compared to the untreated check
Protocol: Phakopsora pachyrhizi Test in Soybean
Compounds were dissolved in 2% DMSO/Acetone and then mixed with water to the calibrated spray volume of 50 mL and poured into the spray bottles for further applications.
as §2, with “soybean” for “tomato”, “suspension” for “suspension (2% Malt)”, “2.1×10^6 Phakopsora pachyrhizi” for “1.2×10^6 Bortytis cinera”, “25°” for “18-20°”, “90%” for “90-100%”
as §3, with “carried out” for “carried”, “with the one of the” for “with”, “plant compatibility” for “phytotoxic effects”

Rhizoctonia solani = assay: In vitro test Rhizoctonia solani (rice sheath blight/potato black scurf), radial growth on Potato Dextrose Agar; assay type: cell-based; conditions: 168 h, agar plate, 25° C., seven days, read-out: control compared to the untreated check
Protocol: Rhizoctonia solani (Rice Sheath Blight/Potato Black Scurf):
as §1, with “Compounds” for “Alternaria solani (early blight of tomato/potato): Compounds”

Septoria lycopersici = assay: In vitro test Septoria lycopersici (leaf spot of tomato), radial growth on Potato Dextrose Agar; assay type: cell-based; conditions: 168 h, agar plate, 25° C., seven days, read-out: control compared to the untreated check
Protocol: Septoria lycopersici (Leaf Spot of Tomato):
as §1, with “Compounds” for “Alternaria solani (early blight of tomato/potato): Compounds”, “70%” for “60%”

Fusarium culmorum = assay: In vitro test Fusarium culmorum (foot rot of cereals), radial growth on Potato Dextrose Agar; assay type: cell-based; conditions: 300 ppm, agar plate, 25° C., seven days
Protocol: Fusarium culmorum (Foot Rot of Cereals):
as §1, with “Compounds” for “Alternaria solani (early blight of tomato/potato): Compounds”, “into petri” for “into Petri”

Row | SMILES | inhibition of growth at 300 ppm (Pyricularia oryzae) [%] | inhibition of growth at 300 ppm (Alternaria solani) [%] | pest or weed control at 500 ppm (Bortytis cinera) [%] | pest or weed control at 500 ppm (Phakopsora pachyrhizi) [%] | inhibition of growth at 300 ppm (Rhizoctonia solani) [%] | inhibition of growth at 300 ppm (Septoria lycopersici) [%] | control compared to the untreated check (Fusarium culmorum) [%]
1 | CCN(C)C=Nc1cc(C)c(Cc2ccc(S(C)(=N)=O)cc2)cc1C (centres unmarked) [Compound 128] | > 70 | > 70 | > 70 |  |  |  | 
2 | CCN(C)C=Nc1cc(C)c(Oc2ccc(S(C)(=O)=NCC3CC3)cc2)cc1Cl (centres unmarked) [Compound 127] | > 70 | > 70 | > 70 |  |  |  | 
3 | CCN(C)C=Nc1cc(C)c(S(=O)(CC(C)C)=Nc2ccccc2)cc1Cl (centres unmarked) [Compound 86] | > 70 |  | > 70 | > 70 |  |  | 
4 | CCN(C)C=Nc1cc(C)c(Oc2cccc(S(C)(=O)=NCC(F)(F)F)c2)cc1C (centres unmarked) [Compound 96] |  | > 70 | > 70 |  | > 70 | > 70 | 
5 | CCN(C)C=Nc1cc(C)c(S(=O)(CC(C)C)=Nc2ccsc2)cc1Cl (centres unmarked) [Compound 114] |  | > 70 |  | > 70 | > 70 | > 70 | 
6 | CCN(C)C=Nc1cc(C)c(S(=O)(CC(C)C)=Nc2ccc(N3CCOCC3)cc2)cc1Cl (centres unmarked) [Compound 113] |  | > 70 |  |  | > 70 | > 70 | 
7 | CCN(C)C=Nc1cc(C)c(S(=O)(CC)=NC(=O)c2cccc(OC)c2)cc1Cl (centres unmarked) [Compound 50] |  | > 70 | > 70 | > 70 | > 70 |  | 
8 | CCN(C)C=Nc1cc(C)c(N=S(C)(=O)c2cccc(OC)c2)cc1C (centres unmarked) [Compound 74] | > 70 |  | > 70 | > 70 |  |  | 
9 | CCN(C)C=Nc1cc(C)c(S(C)(=O)=Nc2ccccc2)cc1Cl (centres unmarked) [Compound 17] |  | > 70 |  |  | > 70 | > 70 | 
10 | CCN(C)C=Nc1cc(C)c(S(C)(=O)=NCc2cccc(Cl)c2)cc1Cl (centres unmarked) [Compound 90] |  | > 70 |  | > 70 | > 70 | > 70 | 
11 | CCN(C)C=Nc1cc(C)c(S(C)(=O)=NCc2cccc(OC(F)(F)F)c2)cc1Cl (centres unmarked) [Compound 92] |  | > 70 |  |  | > 70 | > 70 | 
12 | CCN(C)C=Nc1cc(C)c(S(=O)(CC(C)C)=Nc2cc(C(F)(F)F)cc(C(F)(F)F)c2)cc1Cl (centres unmarked) [Compound 85] |  |  | > 70 | > 70 |  |  | 
13 | CCN(C)C=Nc1cc(C)c(Oc2ccccc2S(=N)(=O)C(F)(F)F)cc1Cl (centres unmarked) [Compound 147] |  |  |  |  |  |  | 70
14 | CCN(C)C=Nc1cc(C)c(Oc2ccc(S(C)(=O)=NC(F)(F)F)cc2)cc1Cl (centres unmarked) [Compound 134] |  | > 70 |  |  | > 70 | > 70 | 
15 | CCN(C)C=Nc1cc(C)c(Oc2cccc(S(C)(=O)=Nc3ccccc3)c2)cc1C (centres unmarked) [Compound 98] |  |  | > 70 |  |  |  | 
16 | CCN(C)C=Nc1cc(C)c(S(=O)(CC(C)C)=Nc2ccc(OC)c(OC)c2)cc1Cl (centres unmarked) [Compound 124] |  | > 70 |  |  | > 70 | > 70 | 
17 | CCN=S(C)(=O)c1cccc(Nc2cc(C)c(N=CN(C)CC)cc2C)c1 (centres unmarked) [Compound 140] |  | > 70 |  |  | > 70 | > 70 | 70
18 | CCN(C)C=Nc1cc(C)c(Oc2cccc(S(=O)(=NC(=O)C(F)(F)F)C(C)C)c2)cc1Cl (centres unmarked) [Compound 10] |  |  |  |  |  |  | 70
19 | CCN(C)C=Nc1cc(Br)c(N=S(C)(=O)c2cccc(OC)c2)nc1C (centres unmarked) [Compound 87] |  |  | > 70 |  |  |  | 
20 | CCN(C)C=Nc1cc(C)c(N=S(C)(=O)c2ccccc2)cc1C (centres unmarked) [Compound 4] |  |  |  |  |  |  | 70
21 | CCN(C)C=Nc1cc(C)c(Oc2cccc(S(=O)(=NCC3CC3)C(F)(F)F)c2)cc1Cl (centres unmarked) [Compound 144] |  |  |  |  |  |  | 70
22 | CCN=S(=O)(CCC(C)C)c1cccc(Oc2cc(Cl)c(N=CN(C)CC)cc2C)c1 (centres unmarked) [Compound 25] | > 70 | > 70 |  |  |  |  | 70
23 | CCN(C)C=Nc1cc(C)c(N=S(=O)(CCC(C)C)c2cccc(OC)c2)cc1C (centres unmarked) [Compound 76] | > 70 |  | > 70 | > 70 |  |  | 
24 | CCN(C)C=Nc1cc(C)c(Oc2cccc(S(C)(=O)=NCc3ccccc3)c2)cc1Cl (centres unmarked) [Compound 21] |  | > 70 | > 70 | > 70 | > 70 |  | 
25 | CCN=S(=O)(c1ccccc1Oc1cc(Cl)c(N=CN(C)CC)cc1C)C(F)(F)F (centres unmarked) [Compound 150] |  | > 70 |  | > 70 | > 70 |  | 70
26 | CCN(C)C=Nc1cc(Br)c(N=S(=O)(CCC(C)C)c2cccc(OC)c2)nc1C (centres unmarked) [Compound 77] |  |  | > 70 | > 70 |  |  | 
